The term IC50 denotes the concentration that gives 50% inhibition. Read a high IC50 as weaker potency in that assay. The EC50 is the midpoint of the concentration-response curve. The low end stands for higher potency in that assay, the high end for lower potency in that assay.

Structures are written as SMILES.

The text below walks through data of article PMC5581131, “The novel sphingosine-1-phosphate receptors antagonist AD2900 affects lymphocyte activation and inhibits T-cell entry into the lymph nodes” (Oncotarget, 2017).

Test [1] concerns the target T1, S1P2 (Homo sapiens, UniProt O95136).
T1 construct: expressed in transfected cells; host or cells: S1P2 CRE-bla CHO cells
Kind of test: S1P2 antagonist test, S1P2 CRE-bla CHO cells. Type of test: cell-based. Conditions: S1P2 CRE-BLA CHO cell line. As for the experimental part: (§1) Since AD2900 is a sphingolipid analogue with properties that resemble those of S1P, we intended to examine its ability to interact with the S1P receptors. To delineate whether AD2900 can function as an agonistic or antagonistic compound to any of the S1P receptors, we used a high-throughput screening cell-based assay, employing cell lines stably transfected with human S1P receptors 1, 2, 3, 4, or 5 [37]. In this experiment, a compound with an IC50 or EC50 value ≤10 μM for a certain S1P receptor is considered active as an antagonist or an agonist, respectively. The results illustrate that AD2900 acts as an antagonist to all S1P receptors (Table 1, Supplementary Figure 3). […] No agonist activation was evident.
(§2) The S1P1 agonist test and S1P2, S1P3, S1P4, and S1P5 agonist and antagonist tests were conducted as previously described using S1P1 CRE-bla CHO cells, S1P2 CRE-bla CHO cells, S1P3 NFAT-bla CHO cells, Tango™ S1P4 (EDG6)-bla U-2 OS cells, and Tango™ S1P5 ([…])-bla U-2 OS cells. The S1P1 antagonist assay was carried out according to the manufacturer’s instructions using a Tango™ S1P1 (EDG1)-bla U-2 OS Cell-Based Assay (Invitrogen, NY, USA).

Test [2] addresses T2, S1P5 (Homo sapiens, UniProt Q9H228).
T2 construct: Tango fusion partner (protease site + GAL4-VP16 transcription factor); expressed in transfected cells; host or cells: Tango S1P5-bla U-2 OS cells
Kind of test: S1P5 antagonist test, Tango S1P5-bla U-2 OS cells. Conditions: S1P5 TANGO U-2 OS cell line. Type of test: cell-based. As for the experimental part: as §1, §2

The next test deals with T3, S1P4 (Homo sapiens, UniProt O95977).
T3 construct: Tango fusion partner (protease site + GAL4-VP16 transcription factor); expressed in transfected cells; host or cells: Tango S1P4 (EDG6)-bla U-2 OS cells
T3 sequence (O95977 1-384): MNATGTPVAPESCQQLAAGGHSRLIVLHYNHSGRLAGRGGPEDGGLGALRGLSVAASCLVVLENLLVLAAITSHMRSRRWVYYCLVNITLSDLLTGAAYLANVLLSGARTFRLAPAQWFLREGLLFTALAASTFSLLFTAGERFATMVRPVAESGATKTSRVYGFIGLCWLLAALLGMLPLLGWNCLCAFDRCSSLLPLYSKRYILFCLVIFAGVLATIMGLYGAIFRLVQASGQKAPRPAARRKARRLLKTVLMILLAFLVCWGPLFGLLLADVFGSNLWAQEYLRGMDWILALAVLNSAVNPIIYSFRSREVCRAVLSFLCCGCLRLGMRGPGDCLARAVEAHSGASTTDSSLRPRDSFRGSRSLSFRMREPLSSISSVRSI
Kind of test: S1P4 agonist test, Tango S1P4 (EDG6)-bla U-2 OS cells. Type of test: cell-based. To be noted: S1P4 TANGO U-2 OS cell line. As for the experimental part:
as §1, §2

Test [3] addresses T2, S1P5. Kind of test: S1P5 agonist test, Tango S1P5-bla U-2 OS cells. Type of test: cell-based. To be noted: S1P5 TANGO U-2 OS cell line. As for the experimental part:
as §1, §2

The next test addresses T4, S1P3 (Homo sapiens, UniProt Q99500).
T4 construct: expressed in transfected cells; host or cells: S1P3 NFAT-bla CHO cells
Briefly: S1P3 agonist test, S1P3 NFAT-bla CHO cells. To be noted: S1P3 NFAT-BLA CHO cell line. Type of test: cell-based. As to the method: as §1, §2

In a further test the test system is non-activated PBMCs. Briefly: Proliferation of non-activated PBMCs, [3H] thymidine. To be noted: different concentrations. Type of test: cell-based, human.
The target in test [4] is T1, S1P2. Briefly: S1P2 agonist test, S1P2 CRE-bla CHO cells. Type of test: cell-based. Conditions: S1P2 CRE-BLA CHO cell line. As for the experimental part:
as §1, §2

T2 sequence (Q9H228 whole entry, the tested form may be a part): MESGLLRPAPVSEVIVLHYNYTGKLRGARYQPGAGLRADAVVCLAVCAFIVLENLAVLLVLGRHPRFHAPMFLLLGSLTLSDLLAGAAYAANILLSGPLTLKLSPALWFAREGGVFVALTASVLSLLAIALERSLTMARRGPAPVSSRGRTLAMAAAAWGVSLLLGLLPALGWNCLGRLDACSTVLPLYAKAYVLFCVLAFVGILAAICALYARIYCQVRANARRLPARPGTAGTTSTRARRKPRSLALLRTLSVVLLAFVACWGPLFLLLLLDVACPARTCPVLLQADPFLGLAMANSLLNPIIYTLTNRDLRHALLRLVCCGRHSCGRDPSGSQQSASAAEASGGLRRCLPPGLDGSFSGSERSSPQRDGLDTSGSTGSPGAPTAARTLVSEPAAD
T1 sequence (O95136 whole entry): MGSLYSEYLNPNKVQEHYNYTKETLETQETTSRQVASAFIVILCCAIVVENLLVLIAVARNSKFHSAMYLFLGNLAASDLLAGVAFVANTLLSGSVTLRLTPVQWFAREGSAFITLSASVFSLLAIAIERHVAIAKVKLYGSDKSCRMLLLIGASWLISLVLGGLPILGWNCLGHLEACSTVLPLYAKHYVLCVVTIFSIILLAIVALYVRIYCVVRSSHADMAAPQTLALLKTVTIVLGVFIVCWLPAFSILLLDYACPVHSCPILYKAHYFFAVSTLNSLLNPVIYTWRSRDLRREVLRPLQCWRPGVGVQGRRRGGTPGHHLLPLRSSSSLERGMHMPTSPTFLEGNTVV
T4 sequence (Q99500 whole entry): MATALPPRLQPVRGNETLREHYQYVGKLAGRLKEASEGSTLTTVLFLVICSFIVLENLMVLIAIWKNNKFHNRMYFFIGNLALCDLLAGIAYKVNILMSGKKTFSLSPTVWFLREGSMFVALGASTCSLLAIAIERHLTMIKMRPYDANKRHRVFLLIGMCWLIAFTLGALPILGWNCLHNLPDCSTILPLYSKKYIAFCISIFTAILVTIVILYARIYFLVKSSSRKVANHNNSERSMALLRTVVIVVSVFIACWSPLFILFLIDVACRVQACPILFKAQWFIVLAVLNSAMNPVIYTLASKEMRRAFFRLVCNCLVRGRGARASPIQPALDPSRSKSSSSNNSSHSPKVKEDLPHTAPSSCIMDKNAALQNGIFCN

Regarding `CCCCCCCCCCCCCCCCNC(CO)(CO)CO` [AD2900], the IC50 on S1P2 [1] amounted to 3.2 µM; on S1P5 [2] it was 405 nM. Further, the concentration giving a half-maximal response (EC50) at S1P4, on S1P5 [3], on S1P3 and at S1P2 [4] was above 50 µM in each case. Further, the “influence on the proliferation of non-activated PBMCs” value with non-activated PBMCs is recorded as “no significant differences”.
